# Measurements as given in EP0869800B1, “ACYLGLYCINE- AND ZINC SALT-BASED ANTIBACTERIAL COMPOUND” (PIERRE FABRE DERMO-COSMETIQUE, priority 1995, dated 1997).
# Tests used:
# [1] = tested on: Staphylococcus aureus 6538 P; test: Study of the association by the checkerboard method on microplate (CMI in association, FiC, FiC Index); format: cell-based; settings: for FiC: CMI of the product in association / CMI of the product alone
# Procedure: • . souche: Staphylococcus aureus 6538 P • milieu de culture : • . bouillon et gélose trypticase soja (Biomérieux) • . bouillon Trypticase soja + 10% Tween 80. • appareillage : • . microplaques stériles Nunc R Nunclon à 96 puits • . eau distillée stérile • . tubes à essais stériles • . étuve à 32°C (Jouan) • . spectrophotomètre PRIM et cuves adaptées • . billes de verres stériles • produits : Les solutions-mères des produits cités ci-dessous ont été préparés comme suit : • . Zn SO 4: solution aqueuse à 5% • . n-octanoyl-glycine : solution à 1% dans 30% butylène glycol puis chauffage jusqu'à dissolution homogène. • méthodes : • CMI : Concentration Minimale Inhibitrice Une distribution de 100 µl de bouillon Trypticase soja est réalisée dans chaque cupule de la microplaque stérile A. Une distribution de 100 µl des différents produits a lieu dans une cupule (on est alors à 50% d'actif) (une cupule par produit). Une série de dilutions sériées au demi est ensuite réalisée sur microplaque. Un témoin stérilité du milieu et un autre témoin de la vigueur de la souche sont réalisés en parallèle sur la microplaque. L'ensemencement de la microplaque (A) a lieu sous la hotte après préparation de l'inoculum bactérien comme suit : Les souches ayant été préalablement repiquées la veille sur gélose Trypticase soja, un inoculum 10^8 germes/ml est dispersé dans l'eau distillée stérile puis agité au vortex. Les billes de verre assurant une bonne dispersion des souches, la mesure de la densité optique permet de préparer un inoculum adéquat par rapport à un étalonnage pré-établi et validé. La répartition de la souche a lieu dans une deuxième microplaque (B) stérile par distribution de 100 µl d'inoculum par microcupule. L'ensemencement a lieu par un repiquage de la microplaque (B) vers la microplaque (A), il se réalise ainsi une dilution au 1/100 de l'inoculum : la microplaque A contenant alors 10^6 germes par ml, peut être mise à l'étuve 24 h à 32°C. […]
# [2] = tested on: Staphylococcus aureus 6538 P; test: Minimal inhibitory concentration (CMI), serial half dilutions in broth on microplate; format: cell-based; settings: product alone; 24 h at 32°C; 10^6 germes par ml
# Procedure: • . souche: Staphylococcus aureus 6538 P • milieu de culture : • . bouillon et gélose trypticase soja (Biomérieux) • . bouillon Trypticase soja + 10% Tween 80. • appareillage : • . microplaques stériles Nunc R Nunclon à 96 puits • . eau distillée stérile • . tubes à essais stériles • . étuve à 32°C (Jouan) • . spectrophotomètre PRIM et cuves adaptées • . billes de verres stériles • produits : Les solutions-mères des produits cités ci-dessous ont été préparés comme suit : • . Zn SO 4: solution aqueuse à 5% • . n-octanoyl-glycine : solution à 1% dans 30% butylène glycol puis chauffage jusqu'à dissolution homogène. • méthodes : • CMI : Concentration Minimale Inhibitrice Une distribution de 100 µl de bouillon Trypticase soja est réalisée dans chaque cupule de la microplaque stérile A. Une distribution de 100 µl des différents produits a lieu dans une cupule (on est alors à 50% d'actif) (une cupule par produit). Une série de dilutions sériées au demi est ensuite réalisée sur microplaque. Un témoin stérilité du milieu et un autre témoin de la vigueur de la souche sont réalisés en parallèle sur la microplaque. […]
Compound,FiC [1],CMI Seuls [2],"CMI Associés ([1]; product in association (checkerboard), incubation at 32°C)"
"CCCCCCCC(=O)NCC(=O)O [n octanoyl glycine, n-octanoyl-glycine]","0,5","0,25",
"O=S(=O)([O-])[O-].[Zn+2] [Zn SO 4, sulfate de zinc]","0,20","0,15","0,03"
